Data published in BindingDB's records for patent US20240335427 (Dana-Farber Cancer Institute, 2024).

Biological target: Josephin-1 (Homo sapiens, UniProt Q15040)
Excerpt: Human JOSD1 protein was purified according to standard protocols.

IC50: 95 nM
Compound: N#CN1CC[C@@H](C(=O)Nc2nc3ccc(-c4ccc5[nH]ncc5c4)cc3s2)C1 [US20240335427, Compound 7]
